From patent publication US20080038809A1, “ISOLATED LECTIN POLYPEPTIDES CONSISTING OF TRUNCATED […] UDP-GalNAc:POLYPEPTIDE N- ACETYLGALACTOSAMINYLTRANSFERASES” (GLYCOZYM APS, priority 2002, published 2008)
“Also recorded” adds a separate entry of the source.

Key:
[1] = system: MUC1 secreted by wild type CHO/MUC1sol-cloneC4; assay: Secreted MUC1 in medium, western blot; type: cell-based, Chinese Hamster; settings: 1-2 mM, compared to control treated or non-treated cells
Excerpt: Because GalNAcα-benzyl exerts separate effects on O-glycan processing and mucin expression, the use of the novel selective inhibitor of mucin expression, GalNAcβ-benzyl, allow analysis of mucin expression and secretion in different cell line models. Examples of human cell lines (available from ATCC, USA) expressing and secreting mucins are without limitations LS174T, HT29, Colo205, CALU, MCF7, T47D, NCI-H292, and A549. Most human adenocarcinoma cell lines express and secret mucins and analysis with antibodies to detect protein expression or probes to detect mRNA can reveal the types and quantities of mucins. […] This and other cell lines can be used to treat with 2 mM GalNAcβ-benzyl. In this Example we used wild type CHO/MUC1sol-cloneC4 and western blot analysis of medium of cells treated with 1-2 mM GalNAcα-benzyl, GalNAcβ-benzyl, or the control GlcNAcα-benzyl. […] The inhibitory effect on mucin secretion can be quantified by a number of assays known to the skilled in the art including western blot, ELISA, gelfiltration, immunocapture, and other assays.

[2] = system: MUC5AC in HT-29 MTX cells; assay: MUC5AC secretion, SDS-PAGE western blot of media with LUM5-1 (FIG. 17); type: cell-based, human; settings: 5 mM, continuous culture, media at 14 days
Experimental: FIG. 17 illustrates SDS-PAGE Western analysis of MUC5AC secretion from HT29MTX cells using polyclonal anti-MUC5AC antibody LUM5-1. In order to evaluate GalNAcβ-benzyl as an inhibitor of mucin glycosylation and secretion we used the HT-29 metotrexate (MTX) cultured colon carcinoma cells of mucin secreting phenotype. HT-29 MTX cells have a goblet cell like phenotype with constitutive production of MUC5AC. Cells were continuously grown up to 21 days in the presence of 5 mM GalNAcα-benzyl, 5 mM GalNAcβ-benzyl, 5 mM GlcNAcα-benzyl and without inhibitor. […] In striking contrast, MUC5AC was not detected in the media from cells treated with GalNAcα-benzyl (Lane 3) or GalNAcβ-benzyl (Lane 4). Results shown are from media collected at 14 days.
(§1) In order to evaluate GalNAcβ-benzyl as an inhibitor of mucin glycosylation and secretion we used the cultured colon carcinoma cells of mucin secreting phenotypes: HT-29 metotrexate (MTX) cells selected from the HT-29 cell line by culture in the presence of MTX (kind gift from G. Huet, France). The HT-29 MTX cells were selected to yield a goblet cell like phenotype with constitutive production of MUC5AC. In order to ensure proper goblet cell differentiation the HT29MTX cell line were continuously grown up to 21 days in the presence of 5 mM GalNAcα-benzyl, 5 mM GalNAcβ-benzyl, 5 mM GlcNAcα-benzyl and without inhibitor using culture conditions as described in Hennebicq-Reig et al. (Permanent exposure of mucin-secreting HT-29 cells to benzyl-N-acetyl-alpha-D-galactosaminide induces abnormal O-glycosylation of mucins and inhibits constitutive and stimulated MUC5AC secretion. Biochem J. 1998; 334:283-95). […] Furthermore the viscosity of the media from cells with and without inhibitor was evaluated using viscosity micro-measurement.

MUC5AC in HT29MTX cells = assay: Immuno-fluorescence staining of MUC5AC with CLH2 (FIG. 18); type: cell-based, human; settings: 5 mM, continuous culture
Excerpt: FIG. 18 illustrates immuno-fluorescence staining of HT29MTX cells treated with inhibitors as indicated and stained with the anti-MUC5AC monoclonal antibody, CLH2.
as §1, with “334:283-95). At 7, 14 and 21 days of continuous culture, media was collected and cells were fixed in 3% paraformaldehyde and stained for the presence of MUC5AC and specific carbohydrate structures using immuno-histochemistry with the following monoclonal antibodies: CLH2 recognizing MUC5AC (Reis C. et al. Immunohistochemical study of MUC5AC expression in human gastric carcinomas using a novel monoclonal antibody. Int. J. Cancer. 1997; 74:112-21), 1E3 recognizing Tn (GalNAcα linked to serine or threonine), 3C9 recognizing T (Galβ1-3GalNAcα linked to serine or threonine, and 3F1 recognizing Sialyl-Tn (NeuAcα2-6GalNAcα linked to serine or threonine.” for “334:283-95).”

[3] = system: cell surface expression of MUC1 in CHO1d1D/MUC1F-clone2 cells; assay: Cell surface expression of MUC1 by immunofluorescence; type: cell-based, Chinese hamster (CHO 1d1D cells); human MUC1; settings: 1 mM, cells grown in GalNAc
Experimental: FIGS. 11A-D are a series of photomicrographs (left to right from top to bottom of) anti-MUC1 antibody immunofluorescence staining of CHO 1d1D cells stably transfected with a full coding cell surface MUC1 (CHO1d1D/MUC1F-clone2). Cell grown in the presence of GalNAc were treated with the O-glycosylation inhibitor GalNAcα-benzyl or control GlcNAcα-benzyl. Cells were grown in plates and stained without permeabilization as described in Example 4.
We therefore investigated the effect of treatment with GalNAcα-benzyl of CHO1d1D/MUC1F-clone2 cells grown in the presence of GalNAc. CHO1d1D/MUC1F-clone2 cells were seeded in 6 well plates at a density of 0.2×10^6 per well and were grown for 6 hours in Hams F12 medium with serum until approximately 30% subconfluent. […] After 18 hours, the medium was replaced with fresh Optimem containing the sugars and benzyl derivatives as above and grown for 12-48 hours. Initially we analyzed surface expression of MUC1 by immunocytology. Cells were washed once in PBS-CMF (phosphate buffered saline Calcium and Magnesium free) after carefully removing the medium from the wells and subsequently fixed in 2 ml 3% paraformaldehyde at 25° C. for 20 min followed by three washes with PBS-CMF 3 times. […]

Structure (SMILES)	secreted MUC1 in medium [1]	MUC5AC in media (secretion) ([2]; listed as GalNAcα-benzyl)	intracellular staining of MUC5AC (MUC5AC in HT29MTX cells)	storage phenotype (MUC5AC in HT29MTX cells)	inhibition of cell surface expression of MUC1 [3]	MUC5AC in media (secretion) [2]
CC(=O)N[C@H]1[C@@H](OCc2ccccc2)O[C@H](CO)[C@H](O)[C@@H]1O [BzlαGalNAc, benzyl-N-acetyl-alpha-D-galactosaminide]	inhibition	diminished secretion; also recorded: not detected	increased intracellular staining	induced a storage phenotype	–	–
CC(=O)N[C@H]1[C@@H](OCc2ccccc2)O[C@H](CO)[C@H](O)[C@@H]1O [GalNAcα-benzyl, benzyl-N-acetyl-alpha-D-galactosaminide]	–	–	–	–	strong inhibition of cell surface expression of MUC1	–
CC(=O)N[C@H]1[C@H](OCc2ccccc2)O[C@H](CO)[C@H](O)[C@@H]1O [GalNAcβ-benzyl]	inhibition	–	clearly diminished intracellular staining	did not lead to any storage disease	–	diminished secretion; also recorded: not detected
CC(=O)N[C@H]1[C@@H](OCc2ccccc2)O[C@H](CO)[C@@H](O)[C@@H]1O [GlcNAcα-benzyl]	–	–	–	–	no inhibition	–
